# From US20250186450A1, “COMBINATION THERAPY COMPRISING DGK INHIBITORS and PD-1/PD-L1 INHIBITORS” (Incyte Corporation, priority 2023, published 2025)
# Test system: human CD3+ T cells co-cultured with allogenic dendritic cells
# Assay: Allogenic mixed lymphocyte reaction assay, IFNγ by HTRF
# Type: cell-based
# Procedure: To assess the ability of 4-((2S,5R)-4-((3,3-difluorocyclobutyl)(4-(trifluoromethyl)phenyl)methyl)-2,5-dimethylpiperazin-1-yl)-2-methyl-1-(((S)-tetrahydrofuran-2-yl)methyl)-1H-[1,2,4]triazolo[3,4-b]purine (i.e., Compound 2) to further enhance the T cell effector function induced by checkpoint blockade, the combination effect of Compound 2 and anti-PD-1 reagent (retifanlimab and pembrolizumab) was evaluated in an allogenic mixed lymphocyte reaction assay.
# In brief, Human PBMCs were isolated from leukopaks (BioIVT) obtained from healthy donors by the Ficoll-Paque (Cytiva 17144002) cell separation method. Monocyte isolation was performed using the Dynabeads Untouched human monocyte kit (Life Technologies 11350D), and monocytes were cultured in 10% FBS RPMI 1640 treated with 100 ng/mL granulocyte-macrophage colony-stimulating factor (R&D Systems 215-GM/CF) and 50 ng/mL IL-4 (R&D Systems 204-IL/CF) for at least 6 days at 37° C. with 5% CO2 to differentiate into dendritic cells. Pan T cells were isolated using the Dynabeads Untouched human T-cell kit (Life Technologies 11344D) and plated at 1×10^5 cells/well in 100 μL of 10% FBS RPMI 1640 in 96-well, round-bottom plates (Costar 3879). […] After 20 hours of incubation at room temperature, the HTRF signal was measured by the PHERAstar FSX microplate reader (BMG Labtech). […]
structure (smiles),measurement,setting,value
"Cc1nc2c(N3C[C@@H](C)N(C(c4ccc(C(F)(F)F)cc4)C4CC(F)(F)C4)C[C@@H]3C)nc3nncn3c2n1C[C@@H]1CCCO1 (single isomer, unassigned) [Example 2]","production of IFNγ, combination vs single agents","4 nM Compound 2 plus 0.7 nM pembrolizumab vs anti-PD-1 mAb or Compound 2 single agent, FIG. 5B",statistically significant higher production of IFNγ
same,"production of IFNγ, combination vs single agents","4 nM Compound 2 plus 0.7 nM retifanlimab vs anti-PD-1 mAb or Compound 2 single agent, FIG. 5A",statistically significant higher production of IFNγ
